Assay results taken from a melting point compilation (Tetko et al.; mined from patent text by program, amines drawn as free bases though some values may be those of a salt).

Row | melting point [°C] | Compound
1 | 142 to 146 | CC1(C)COC(c2ccccc2S(N)(=O)=O)=N1
2 | 222 | CCn1cc(C(=O)O)c(=O)c2cnc(N3CCN(CCO)CC3)nc21
3 | 146 | Cc1ccc2c(c1)C(C(=O)Nc1c(C(C)C)cc(SC#N)cc1C(C)C)c1ccccc1CO2 (stereo not given)
4 | 223 to 225 | CCCc1nn2ncc(C(=O)O)c2n1Cc1ccc(-c2ccccc2-c2nc(=O)o[nH]2)cc1
5 | 60 to 61 | CCCCCCCCCCCCCCOC(=O)c1cc(C(=O)OCCCCCCCCCCCCCC)cc([N+](=O)[O-])c1
6 | 168 to 170 | c1ccc(COc2ccc3[nH]c(-c4ccccc4)cc3c2)cc1
7 | 192 to 195 | CCOc1cc2ncc(C#N)c(Nc3cccc(F)c3)c2cc1OCC
8 | 154 | CN(C)C=Nc1ccc(-c2ccc(C(F)(F)F)cc2)cn1
9 | 198 to 202 | CCn1ncc(C(=O)c2ccc(S(C)(=O)=O)c(N3CCOC(=O)C3)c2Cl)c1O
10 | 160 to 163 | O=C(Nc1ccc(C(CC2CCCC2)C(=O)O)cc1)c1cccnc1 (stereo not given)
11 | 59 to 61 | CC1(C(=O)O)CC1(F)F (stereo not given)
12 | 76 to 78 | CCOC(=O)c1ccc2c(c1)CCC(COS(=O)(=O)c1ccc(C)cc1)C2 (stereo not given)
13 | 155 to 156 | Cc1nc2ccc(N3CCN(CCCC(=O)c4ccc(F)cc4)CC3)nc2nc1C
14 | 169 to 171 | CCOC(=O)c1sc(Cn2cc(Cl)cnc2=O)nc1C
15 | 193 to 196 | CC(=O)N1CCc2c(sc(C)c2CCN2CCC(c3nn(-c4ccc(F)cc4)c4cc(F)ccc34)CC2)C1
16 | 56 to 59 | O=C(Cc1cccs1)N1C(=O)OC[C@@H]1Cc1ccccc1
17 | 82 to 84 | COc1ccc(CCOCC(=O)O)cc1
18 | 239 to 241 | CN1c2cc(Cl)ccc2-c2nc3ccccc3c3cc(OS(=O)(=O)C(F)(F)F)cc1c23
19 | 138 to 139 | Cc1c(CO)c(CO)c2sc3ccccc3n12
20 | 86 to 88 | CNC(=NC#N)NCCSCc1cc(C)c(CN(C)C)o1
21 | 146 to 147 | COCCOc1ccc(/C=C(\C)C(=O)NS(=O)(=O)C(F)(F)F)c(Oc2ncc(C(F)(F)F)cc2Cl)c1
22 | 182 to 183 | COCCOc1cc(N(C)S(=O)(=O)c2ccccn2)c2[nH]c(C3=NCC(CN4CCS(=O)CC4)S3)cc2c1 (stereo not given)
23 | 123 to 125 | COC(=O)CCC(=O)N(O)c1cccc(OCc2nc3ccccc3s2)c1
24 | 197 to 199 | O=C(c1ccc(-c2ccn(C(=O)C3CC3)n2)cc1)N1Cc2cccn2Cc2ccccc21
25 | 170 to 171 | CN1CCN(c2cccc(-c3cnn4c(N)c(Cc5cccc(Br)c5)cnc34)c2)CC1

Row | melting point [°C] | Compound
26 | 87 to 91 | COc1ccc2c(c1)CCC1C2CCC2(C)C(O)CC(C)(C)C12 (stereo not given)
27 | 104 to 106 | Cc1cn(N)c2ccc(OCc3ccccc3)cc12
28 | 59 to 60 | OCCCc1cc(-c2ccc(C(F)(F)F)cc2)no1
29 | 202 to 203 | Cc1cccc2nn(-c3cc(O)ccc3O)nc12
30 | 95 to 97 | Cc1cc(O)ccc1N=Cc1ccccc1O
31 | 216 to 218 | CCOC(=O)/C=C/C=C/c1cccc(-c2c(CC(=O)Nc3ccc(F)cc3C(F)(F)F)c(=O)oc3cc(Cl)c(C)cc23)c1
32 | 186 to 188 | C[C@H](NS(=O)(=O)c1ccc(-c2c(C#N)c3cc(C(F)(F)F)cnc3n2-c2ccccc2)nc1)C(F)(F)F
33 | 265 to 267 | COc1cc(F)ccc1-c1c(/C=C/C(=O)O)c2ccccc2c(=O)n1C(C)C
34 | 132 to 133 | CCN(CCO)C(=O)C1=C(C(=O)Nc2cc(OC3CCCC3)c(Cl)cc2F)CCCC1
35 | 183 to 186 | O=C1CCCc2c1ccc(O)c2Br
36 | 123 to 125 | CCNC(NC(C)=O)C(=O)NCc1ccccc1 (stereo not given)
37 | 183 to 185 | CCOC(=O)c1cnc2n(c1=O)C(C)CCC2=NNC(=O)c1ccc2c(c1)OCO2 (stereo not given)
38 | 295 to 302 | COCCn1cc2c(=O)[nH]c(=O)[nH]c2n1
39 | 127 to 130 | CN(CCCO)c1ccnc(CSc2nc3ccccc3[nH]2)c1Cl
40 | 116 to 118 | COc1cc(C(C)C)c2c(c1)S(=O)(=O)N(COc1cc(C(F)(F)F)nn1Cc1ccccc1)C2=O
41 | 195 to 196 | O=C(O)C1CCc2c(c3cc(F)ccc3n2C(=O)c2ccc(F)cc2)C1 (stereo not given)
42 | 139 to 141 | Cc1nc2ccc(CCc3ccccc3)cn2c1CC#N
43 | 193 to 195 | CC1Cc2cc3c(cc2C(c2ccc([N+](=O)[O-])cc2)=NN1C(=O)Cc1ccccc1)OCO3 (stereo not given)
44 | 79 to 80 | CCCCCCCCCCCCCCCc1cc2cc(C(=O)OCCCC)ccc2[nH]1
45 | 106 to 107 | Cc1oc(-c2ccccc2)nc1COc1ccc(N)cn1
46 | 107 to 108 | Cc1nc(N2CCN(Cc3ccc(C(F)(F)F)cc3)C2=O)sc1C(=O)NCc1cccnc1
47 | 123 to 124 | CN(C)CCOC(=O)C1CCc2c([nH]c3ccc(Cl)cc23)C1 (stereo not given)
48 | 142 | O=[N+]([O-])c1cc(O)ccc1NCCO
49 | 176 to 178 | Cc1ccc(CNc2c3c(nc4ccccc24)CCCC3O)cc1 (stereo not given)
50 | 152 to 153 | CN=C1SCC(O)(c2ccc(Cl)c(S(=O)(=O)NCc3cccnc3)c2)N1C (stereo not given)

Row | melting point [°C] | Compound
51 | 52 to 54 | CN1CC(=O)C(C)(C)CC1=O
52 | 132 to 133 | COc1ccc(N2C(=O)C(O[Si](C(C)C)(C(C)C)C(C)C)C2c2ccc(C(F)(F)F)cc2)cc1 (stereo not given)
53 | 207 to 208 | CCCn1cc(C(=O)O)c(=O)c2cc(C)sc21
54 | 182 to 183 | CCCCc1cn(CCC2CC2)c(=O)n1Cc1ccc(-c2ccccc2-c2nnn[nH]2)nc1
55 | 132 to 134 | CCCCn1c(C)c(C(=O)Nc2c(CC)cccc2CC)c(=O)c(Br)c1CC
56 | 201 to 202 | COc1cc(Nc2ncc3c(n2)-c2ccccc2CCC3)cc(OC)c1OC
57 | 139 to 140 | CN1CCc2ccc(C(=O)CCC(=O)N3CCC(c4ccc(Cl)cc4)CC3)cc2C1
58 | 117 to 118 | Nc1nc(N2CCN(CCCC3(c4ccc(F)cc4)OCCO3)CC2)ccc1[N+](=O)[O-]
59 | 111 to 112 | COC(=O)c1c(-c2cc3ccccc3o2)ccc2ccccc12
60 | 54 to 55 | CCCCCSc1cc(C(C)(C)C)c(O)c(C(C)(C)C)c1
61 | 103 to 104 | O=C1NCCN(Cc2ccc(Cl)cc2)C1c1ccccc1 (stereo not given)
62 | > 220 | CSc1nn2c(O)cc(C)nc2c1S(=O)(=O)c1ccccc1
63 | 158 | N#Cc1c(N2CCN(C(=O)c3cccs3)CC2)c2cc(Cl)cnc2[nH]c1=O
64 | 110 | COC(=O)c1cccc(NC(=O)N(C)C)c1
65 | 155 to 157 | CN(Cc1ccccc1)CC1CN(c2c(F)cc3c(=O)c(C(=O)O)cn(C4CC4)c3c2F)CCO1 (stereo not given)
66 | 168 to 169 | O=C(Nc1cccnn1)N1CCN(c2nccc(-c3ccc(F)cc3)n2)CC1
67 | > 220 | N#Cc1cc(O)c2[nH]c(=O)oc2c1
68 | 173 | COC(=O)[C@@H]1C[C@H](C(=O)O)Nc2cc(C)cc(C)c21 (relative stereo)
69 | 222 | CC(C)NS(=O)(=O)c1cccc(NC(=O)c2cnn3c(C(F)(F)F)cc(-c4ccc(C(F)(F)F)cc4)nc23)c1
70 | 94 to 96 | O=C(CCC1OC=CO1)c1ccc2c(c1)OCO2
71 | 115 to 118 | CCOC(=O)c1nnc(N2N=C(c3ccc([N+](=O)[O-])c(C)c3)c3cc4c(cc3C[C@H]2C)OCO4)s1
72 | 85.7 to 87.5 | c1ccc(COc2ccc3c(c2)OC[C@@H](c2ccccc2)[C@H]3c2ccc(OCCCCCCN3CCOCC3)cc2)cc1 (racemic)
73 | 150 to 153 | O=C1c2ccccc2C(O)(c2ccccc2)N1C1CCN(CCC(c2ccccc2)c2ccccc2)CC1 (stereo not given)
74 | 74 to 75 | CCc1c(Oc2ncc(C(F)(F)F)cc2Cl)n[nH]c1C
75 | 105 | CC(=O)Nc1ccc2c(c1)CCCCC2=O

Row | melting point [°C] | Compound
76 | > 300 | COc1ccc(-c2nc3cc4nc[nH]c(=O)c4cc3[nH]2)cc1
77 | 244 to 245 | Cc1oc(-c2ccccc2)nc1C(=O)COc1ccc(C=C2SC(=O)NC2=O)cc1
78 | 187 to 192 | COc1ccc(-c2ccncc2)cc1-c1ccc2nonc2c1
79 | 80 to 83 | CCN1C(c2ccccc2C(=O)c2ccccc2)=N[C@@H]2CCCC[C@H]21 (relative stereo)
80 | 191 | Cc1cccc2[nH]c3cc(O)ccc3c12
81 | > 280 | CC(C)(C)c1cc(-n2ccc(=O)[nH]c2=O)cc(-c2ccc3cc(NS(C)(=O)=O)ccc3c2)c1Cl
82 | 146 to 151 | Cc1ncc(CO)c(CN(C)C)c1O
83 | 97 to 98 | CC(C)C(=O)NCc1ccc2ccn(C3CCN(CCc4ccc(F)cc4)CC3)c2c1
84 | 94 to 95 | O=C(O)CCc1cnoc1-c1ccc(-c2ccccc2)cc1
85 | 156 to 157 | CCOC(=O)C1=C(C)NC(COC(=O)c2ccccc2)=C(C(=O)OCC)C1c1ccccc1[N+](=O)[O-] (stereo not given)
86 | 233 to 234 | CCNC(=O)c1cccc(F)c1Nc1nc(Cl)ncc1Cl
87 | 136 to 138 | O=C(O)C(CC1CCCC1)c1ccc(-c2cccnc2)cc1 (stereo not given)
88 | 158 to 160 | O=C(O)C12CCCC(C1)C1CCC2C1 (stereo not given)
89 | 153 to 156 | NCCCc1cccnc1C(N)=O
90 | 148 | COc1ccc(C2=C(c3ccc(S(C)(=O)=O)cc3)C(C)(C)OC2=O)cc1
91 | 88 to 89 | Clc1cc(Cl)n2nc(SCc3ccccc3)nc2c1
92 | 105 to 106 | CC1CCC2(CC1S(=O)(=O)c1ccccc1)OCCO2 (stereo not given)
93 | 88.5 to 89 | COc1ccc(NC(C)=S)cc1C
94 | 98 to 101 | COC(=O)c1ccccc1CS(=O)(=O)NC(=O)Cc1nc(OC)cc(OC)n1
95 | 300 to 302 | CC(=O)Nc1cccc(-c2[nH]c3cccc4c3c2CCNC4=O)c1
96 | 110 to 111 | C=Cc1nc(NC)sc1-c1ccncc1
97 | 146 | CCOC(=O)c1c(O)c2ccsc2n(Cc2ccccc2)c1=O

Row | Compound | melting point [°C]
98 | Nc1nc(CN2CCC(c3c[nH]c4ccccc34)CC2)cs1 | 195 to 198
99 | COc1ccccc1N1CCN(Cc2ccc(O)cc2)CC1 | 172
100 | CCOC(=O)CC1C(=O)N(CC(C)(C)C)c2ccc(Cl)cc2N(c2ccccc2Cl)C1=O (stereo not given) | 152 to 153
